Holding throughout (type): in vivo, human
In test [1] the test system is Patients with BPH. The test is described as follows: Example One: incidence of acute urinary retention after intraprostatic injection, double-blind, BPH patients. To be noted: patients with BPH who received intraprostatic SEQ ID NO: 66 2.5 mg at least once (initial or subsequent treatment); after 2 years; followed 1 to 6 years; p < .05 vs control. The source says:
Patients with BPH were given an intraprostatic injection of either a) SEQ ID NO. 66 (Ile-Asp-Gln-Gln-Val-Leu-Ser-Arg-Ile-Lys-Leu-Glu-Ile-Lys-Arg-Cys-Leu) in phosphate buffered saline pH 7.2 (“PBS”) or b) PBS alone, under double-blind conditions by a urologist in an office setting under ultrasound guidance. Patients were followed for 1 to 6 years with regular physical examinations, laboratory tests, and evaluations of symptoms. Both groups of subjects were subsequently given either 1) no further treatment; 2) conventional oral medications such as alpha blockers or 5-alpha reductase inhibitors; 3) an intraprostatic injection of SEQ ID NO. 66 2.5 mg or 4) more than one of the preceding. The overall incidence of acute urinary retention in all patients who received intraprostatic SEQ ID NO. […] 66 under similar conditions.

For test [2], the system named is Patients with BPH. The test is described as follows: Example Two: acute urinary retention after vehicle injection followed by oral medications or SEQ ID NO. 66. As to conditions: PBS vehicle injection followed by intraprostatic injection of SEQ ID NO: 66; followed 1 to 6 years. The text has this:
Patients with BPH were given an intraprostatic injection of PBS pH 7.2 vehicle alone, under double-blind conditions by a urologist in an office setting under ultrasound guidance. Patients were followed for 1 to 6 years with regular physical examinations, laboratory tests, and evaluations of symptoms, and treatments. […] 66 (Ile-Asp-Gln-Gln-Val-Leu-Ser-Arg-Ile-Lys-Leu-Glu-Ile-Lys-Arg-Cys-Leu).

The subject of test [3] is Patients with BPH. As to the kind of experiment: Example 3: acute urinary retention after vehicle or SEQ ID NO. 66 followed by oral BPH medications. To be noted: SEQ ID NO: 66 2.5 mg intraprostatic followed by oral medications; followed 1 to 6 years; p < .02. Here is the method:
In this example, patients with BPH were given an intraprostatic injection of PBS pH 7.2 vehicle alone or an injection of SEQ ID NO. 66 (Ile-Asp-Gln-Gln-Val-Leu-Ser-Arg-Ile-Lys-Leu-Glu-Ile-Lys-Arg-Cys-Leu), 2.5 mg in PBS, under double-blind conditions by a urologist in an office setting under ultrasound guidance. Patients were followed for 1 to 6 years with regular physical examinations, laboratory tests, and evaluations of symptoms, and treatments. […] 66 and who subsequently received conventional oral medications used to treat BPH such as the classes of approved medications listed above.

Test [4] concerns Patients with BPH. As to the kind of experiment: Example 4: acute urinary retention within 24 months, SEQ ID NO. 66 followed by oral medications or second injection vs vehicle. Here is the method: Patients with BPH were given an intraprostatic injection under double-blind conditions by a urologist in an office setting under ultrasound guidance of either a) SEQ ID NO. 66 (Ile-Asp-Gln-Gln-Val-Leu-Ser-Arg-Ile-Lys-Leu-Glu-Ile-Lys-Arg-Cys-Leu), in phosphate buffered saline pH 7.2 (“PBS”); or b) SEQ ID NO. 66 in phosphate buffered saline pH 7.2 followed by a second injection of SEQ ID NO. 66 2.5 mg one month to 2 years later; or c) PBS vehicle alone followed by conventional oral BPH medications used to treat BPH including alpha blockers such as tamsulosin, terazosin, doxazosin, or 5-alpha reductase inhibitors such as finasteride, dutasteride, or phosphodiesterase type 5 inhibitors (PDE5 inhibitors) such as tadalafil. Patients were followed for 2 years with regular physical examinations, laboratory tests, and evaluations of symptoms. […] 66 followed by conventional medication or by another injection of SEQ ID NO. 66 there were >75% fewer instances of acute urinary retention compared to subjects who were administered only a control injection of vehicle alone.

Test [5] has as its system Patients with BPH. As to the kind of experiment: Example 5: acute urinary retention, follow-up up to 6 years, SEQ ID NO. 66 followed by oral medications or second injection vs vehicle. As for the experimental part:
Patients with BPH were administered an intraprostatic injection under double-blind conditions by a urologist in an office setting under ultrasound guidance of either a) SEQ ID NO. 66 (Ile-Asp-Gln-Gln-Val-Leu-Ser-Arg-Ile-Lys-Leu-Glu-Ile-Lys-Arg-Cys-Leu), in phosphate buffered saline pH 7.2 (“PBS”), followed by conventional oral BPH medications used to treat BPH including alpha blockers such as tamsulosin, terazosin, doxazosin, or 5-alpha reductase inhibitors such as finasteride, dutasteride, or phosphodiesterase type 5 inhibitors (PDE5 inhibitors) such as tadalafil. Patients were followed for up to 6 years with regular physical examinations, laboratory tests, and evaluations of symptoms; b) SEQ ID NO. 66 in phosphate buffered saline pH 7.2 followed by a second injection of SEQ ID NO. 66 2.5 mg one month to 2 years later; or c) PBS vehicle alone. […] 66 followed by conventional medication or by another injection of SEQ ID NO.

Marks after values point to notes of the source that are not given here. No end group written: not given here.

Regarding IDQQVLSRIKLEIKRCL [SEQ ID NO: 66], the “Incidence of acute urinary retention” value in the test with Patients with BPH [1] is given as 1.4%*; in the test with Patients with BPH [2], 2.1%; with Patients with BPH [3] it was 0%*; with Patients with BPH [5] (SEQ ID NO: 66 intraprostatic followed by oral medications or another injection of SEQ ID NO: 66, followed up to 6 years, p < .04) it was 2%*. The “fewer instances of acute urinary retention compared to vehicle alone” value in the test on Patients with BPH [4] (SEQ ID NO. 66 followed by conventional medication or another injection of SEQ ID NO. 66, 2 years) is reported as over 75%; in the test with Patients with BPH [5] (SEQ ID NO. 66 followed by conventional medication or another injection of SEQ ID NO. 66, up to 6 years), over 75%. For the same sequence, the “Incidence of acute urinary retention (<24 months)” value in the test on Patients with BPH [4] (SEQ ID NO: 66 intraprostatic followed by oral medications or another injection of SEQ ID NO: 66, followed 2 years, p < .03) was determined as 0.76%*.
